{
  "source": "patent US20100273189A1",
  "about": "“NON SEPARATION ASSAYS WITH SELECTIVE SIGNAL INHIBITORS” (BECKMAN COULTER, INC., priority 2009, published 2010)",
  "type_in_all_cases": "biochemical",
  "key": {"CK-MB": {"test_system": "CK-MB", "assay": "CK-MB assay, AK-Ab1 particle + HRP-Ab2 conjugate", "conditions": "for RLU: replicates", "protocol": "This example describes a method of detecting CK-MB (Creatine Kinase Myocardial Band) using an AK-Abl particle prepared as set forth in Example 3 and a HRP-Ab2 conjugate prepared as set forth in Example 4 where Ab2 represents an antibody to CK-MB. This method employed ascorbic acid to decrease background signal.\n(§1) HRP-Ab2 conjugate suspensions were prepared at 1.0 μg/mL and contained either 0 or 1 mM ascorbic acid. Samples consisted of human serum samples with the indicated mounts of CK-MB added or no CK-MB as a control. The test procedure consisted of adding 15 μL of 1.0 μg/mL HRP-Ab2 conjugate and 35 μL of MES buffer containing 1 mg/mL BSA and 1 mg/mL MIgG, pH 5.9 to the reaction vessel. Next, 25 μL of patient serum sample was added, followed by 25 μL of 1.0 mg/mL AK-Abl conjugate suspension thereby obtaining 100 μL of total volume in the reaction vessel. After 15.2 minutes, 100 μL of trigger solution A was added to the reaction vessel and the light intensity was recorded on the modified DxI instrument. Chemiluminescence intensity is expressed in Relative Light Units (RLU)."}, "cTnI [1]": {"test_system": "cTnI", "assay": "Comparison of particle types in cTnI assay, with and without ascorbic acid", "conditions": "150 μM ascorbic acid; each particle system; highest calibrator level; in words", "protocol": "Signal generation with Silica and PMMA particles. A comparison of Dynal M-280, 3 um CML, 6 um CML, PMMA, silica and LodeStars particles was conducted using the cTnI assay described above. The preparation of each particle, bearing a coating of streptavidin, is described in the foregoing examples. Ascorbic acid, when present, was at 150 μM."}, "cTnI [2]": {"test_system": "cTnI", "assay": "cTnI detection via heterogeneous assay", "protocol": "This example describes a method of detecting cTnI (Cardiac Troponin I) using an AK-Abl particle prepared e.g., as set forth in Example 3 and a HRP-Ab2 conjugate prepared e.g., as set forth in Example 4 where Ab2 represents an antibody to cTnI. The effect of ascorbic acid on background signal was investigated.\nas §1, with “of cTnI” for “of CK-MB”, “no cTnI” for “no CK-MB”, “adding 20” for “adding 15”, “and 30” for “and 35”"}, "myoglobin": {"test_system": "myoglobin", "assay": "Myoglobin assay, AK-Ab1 particle + HRP-Ab2 conjugate", "conditions": "ascorbic acid employed", "protocol": "This example describes a method of detecting myoglobin using a AK-Abl particle prepared as set forth in Example 3 and a HRP-Ab2 conjugate prepared as set forth in Example 4 where Ab2 represents an antibody to myoglobin. This method employed ascorbic acid to decrease background signal.\nHRP-Ab2 conjugate suspensions were prepared at 1.0 μg/mL and contained either 0 or 1 mM ascorbic acid. Samples consisted of human serum samples with the indicated mounts of myoglobin added or no myoglobin as a control. The test procedure consisted of adding 20 μL of 1.0 μg/mL HRP-Ab2 conjugate and 30 μl of MES buffer containing 1 mg/mL BSA and 1 mg/mL MIgG, pH 5.9 to the reaction vessel. Next, 25 μL of patient serum sample was added, followed by 25 μL of 5.0 mg/mL AK-Abl conjugate suspension thereby obtaining 100 μL of total volume in the reaction vessel. After 15.2 minutes, […] of trigger solution A was added to the reaction vessel and the light intensity was recorded on the modified DxI instrument. Chemiluminescence intensity is expressed in Relative Light Units (RLU)."}, "[3]": {"conditions": "With Ascorbate, S1, CK-MB 600 pg/mL"}, "[4]": {"conditions": "With Ascorbate, S2, CK-MB 3200 pg/mL"}, "[5]": {"conditions": "With Ascorbate, S3, CK-MB 9150 pg/mL"}, "[6]": {"conditions": "With Ascorbate, S4, CK-MB 26300 pg/mL"}, "[7]": {"conditions": "With Ascorbate, S5, CK-MB 94600 pg/mL"}, "[8]": {"conditions": "With Ascorbate, S6, CK-MB 268750 pg/mL"}, "[9]": {"conditions": "With Ascorbate, S7, CK-MB 1500000 pg/mL"}, "[10]": {"conditions": "with ascorbic acid, S1, cTnI 172 pg/mL"}, "[11]": {"conditions": "with ascorbic acid, S2, cTnI 366 pg/mL"}, "[12]": {"conditions": "with ascorbic acid, S3, cTnI 1368 pg/mL"}, "[13]": {"conditions": "with ascorbic acid, S4, cTnI 11136 pg/mL"}, "[14]": {"conditions": "with ascorbic acid, S5, cTnI 27922 pg/mL"}, "[15]": {"conditions": "with ascorbic acid, S6, cTnI 106000 pg/mL"}},
  "note": "Several values for one entry are separate records, joined by “and”; a condition that tells them apart may be missing. Identical values can stand only once.",
  "data": [
    {"smiles": "O=C1O[C@H]([C@@H](O)CO)C(O)=C1O", "note": "[Ascorbic Acid, Ascorbic acid]", "values": [
      {"measurement": "RLU", "setting": "CK-MB; With Ascorbate (1 mM in HRP-Ab2 conjugate), Buffer, CK-MB 0 pg/mL", "value": "1616 RLU and 1536 RLU and 1592 RLU"},
      {"measurement": "Mean RLU", "setting": "CK-MB; With Ascorbate, Buffer, CK-MB 0 pg/mL", "value": 1581, "unit": "RLU"},
      {"measurement": "Mean RLU", "setting": "CK-MB; [3]", "value": 883, "unit": "RLU"},
      {"measurement": "RLU", "setting": "CK-MB; [3]", "value": "948 RLU and 852 RLU and 848 RLU"},
      {"measurement": "Mean RLU", "setting": "CK-MB; [4]", "value": 4051, "unit": "RLU"},
      {"measurement": "S/S1", "setting": "CK-MB; [4]", "value": 4.59},
      {"measurement": "RLU", "setting": "CK-MB; [4]", "value": "4080 RLU and 3928 RLU and 4144 RLU"},
      {"measurement": "Mean RLU", "setting": "CK-MB; [5]", "value": 13295, "unit": "RLU"},
      {"measurement": "S/S1", "setting": "CK-MB; [5]", "value": 15.06},
      {"measurement": "RLU", "setting": "CK-MB; [5]", "value": "12756 RLU and 13108 RLU and 14020 RLU"},
      {"measurement": "Mean RLU", "setting": "CK-MB; [6]", "value": 40407, "unit": "RLU"},
      {"measurement": "S/S1", "setting": "CK-MB; [6]", "value": 45.78},
      {"measurement": "RLU", "setting": "CK-MB; [6]", "value": "41384 RLU and 39448 RLU and 40388 RLU"},
      {"measurement": "Mean RLU", "setting": "CK-MB; [7]", "value": 232489, "unit": "RLU"},
      {"measurement": "S/S1", "setting": "CK-MB; [7]", "value": 263.39},
      {"measurement": "RLU", "setting": "CK-MB; [7]", "value": "222832 RLU and 249468 RLU and 225168 RLU"},
      {"measurement": "Mean RLU", "setting": "CK-MB; [8]", "value": 1195177, "unit": "RLU"},
      {"measurement": "S/S1", "setting": "CK-MB; [8]", "value": 1354.05},
      {"measurement": "RLU", "setting": "CK-MB; [8]", "value": "1187736 RLU and 1121256 RLU and 1276540 RLU"},
      {"measurement": "Mean RLU", "setting": "CK-MB; [9]", "value": 3324829, "unit": "RLU"},
      {"measurement": "S/S1", "setting": "CK-MB; [9]", "value": 3766.80},
      {"measurement": "RLU", "setting": "CK-MB; [9]", "value": "3266772 RLU and 3290024 RLU and 3417692 RLU"},
      {"measurement": "S/S0", "setting": "cTnI [1]", "value": "markedly improved S/S0"},
      {"measurement": "background signal", "setting": "cTnI [2]; in the presence of ascorbic acid, in words", "value": "significant reduction in background signal"},
      {"measurement": "RLU", "setting": "cTnI [2]; second column pair (with 1 mM ascorbic acid in conjugate), S0, cTnI 0 pg/mL", "value": 422, "unit": "RLU"},
      {"measurement": "RLU", "setting": "cTnI [2]; [10]", "value": 1320, "unit": "RLU"},
      {"measurement": "S/S0", "setting": "cTnI [2]; [10]", "value": 3.1},
      {"measurement": "RLU", "setting": "cTnI [2]; [11]", "value": 2778, "unit": "RLU"},
      {"measurement": "S/S0", "setting": "cTnI [2]; [11]", "value": 6.6},
      {"measurement": "RLU", "setting": "cTnI [2]; [12]", "value": 10254, "unit": "RLU"},
      {"measurement": "S/S0", "setting": "cTnI [2]; [12]", "value": 24.3},
      {"measurement": "RLU", "setting": "cTnI [2]; [13]", "value": 108628, "unit": "RLU"},
      {"measurement": "S/S0", "setting": "cTnI [2]; [13]", "value": 257.4},
      {"measurement": "RLU", "setting": "cTnI [2]; [14]", "value": 325082, "unit": "RLU"},
      {"measurement": "S/S0", "setting": "cTnI [2]; [14]", "value": 770.3},
      {"measurement": "RLU", "setting": "cTnI [2]; [15]", "value": 2380772, "unit": "RLU"},
      {"measurement": "S/S0", "setting": "cTnI [2]; [15]", "value": 5641.6},
      {"measurement": "RLU", "setting": "myoglobin; S0, 11.4 ng/mL", "value": "1,183 RLU"},
      {"measurement": "RLU", "setting": "myoglobin; S1, 56.3 ng/mL", "value": "5,557 RLU"},
      {"measurement": "S/S0", "setting": "myoglobin; S1, 56.3 ng/mL", "value": 5},
      {"measurement": "RLU", "setting": "myoglobin; S2, 221 ng/mL", "value": "31,947 RLU"},
      {"measurement": "S/S0", "setting": "myoglobin; S2, 221 ng/mL", "value": 27},
      {"measurement": "RLU", "setting": "myoglobin; S3, 864 ng/mL", "value": "190,076 RLU"},
      {"measurement": "S/S0", "setting": "myoglobin; S3, 864 ng/mL", "value": 161},
      {"measurement": "RLU", "setting": "myoglobin; S4, 2016 ng/mL", "value": "1,315,465 RLU"},
      {"measurement": "S/S0", "setting": "myoglobin; S4, 2016 ng/mL", "value": "1,048"},
      {"measurement": "RLU", "setting": "myoglobin; S5, 3136 ng/mL", "value": "4,667,341 RLU"},
      {"measurement": "S/S0", "setting": "myoglobin; S5, 3136 ng/mL", "value": "3,945"}
    ]}
  ]
}
